Results on seven compounds are retold here after PubChem BioAssay (NCI).

Several values for one entry are separate records, joined by “and”; a condition that tells them apart may be missing. Equal values may be shown once.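 Test compounds were applied to cells in 96-well plates for 48 hours at 5 doses. GI50 is the concentration that inhibits growth by half. TGI: concentration producing complete growth inhibition.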

Among the test systems are SW-620 colon; NCI-H23 lung; SF-268 CNS; SK-MEL-28 melanoma; M14 melanoma; OVCAR-4 ovarian; SK-OV-3 ovarian; PC-3 prostate; EKVX NSCLC; NCI/ADR-RES ovarian.
What all share (test): NCI tumour cell line growth inhibition, 48 h

As to `CCSc1ccc([C@@H]2[C@@H](O)C(=O)N2c2cc(OC)c(OC)c(OC)c2)cc1`, the GI50 is below 0.0121 µM with SW-620 colon; 0.0456 µM in the assay with NCI-H23 lung; 0.0504 µM with SF-268 CNS; 11.7 µM with SK-MEL-28 melanoma; below 0.01 µM in the assay on M14 melanoma; 0.0674 µM in the assay on OVCAR-4 ovarian. The GI50 in the assay on SK-OV-3 ovarian was 0.0271 µM; with PC-3 prostate, 0.0146 µM; in the assay on EKVX NSCLC, 0.0226 µM; in the assay on NCI/ADR-RES ovarian it was 0.0157 µM. For the same compound, the TGI is above 100 µM with SW-620 colon; 61 µM in the assay on NCI-H23 lung; 51.7 µM in the assay with SF-268 CNS; 33 µM in the assay on SK-MEL-28 melanoma; 15.8 µM with M14 melanoma; 75.8 µM in the assay on OVCAR-4 ovarian. The TGI with SK-OV-3 ovarian came to 38.1 µM; in the assay with PC-3 prostate it was 79.7 µM; with EKVX NSCLC, 53 µM; with NCI/ADR-RES ovarian, 23.9 µM.
`CCCN(CCC)c1ccc(C=O)c(Cl)c1`: the GI50 is 20.9 µM with SW-620 colon; 25.6 µM in the assay on NCI-H23 lung; 33.9 µM in the assay on SF-268 CNS; 20 µM in the assay on SK-MEL-28 melanoma; 26 µM in the assay on M14 melanoma; 0.78 µM in the assay with OVCAR-4 ovarian. Further, the GI50 in the assay with SK-OV-3 ovarian is 24.4 µM; in the assay with PC-3 prostate, 29.1 µM; in the assay with EKVX NSCLC, 21.4 µM; in the assay with NCI/ADR-RES ovarian, 29 µM. The TGI is above 100 µM with SW-620 colon; above 100 µM with NCI-H23 lung; above 91.5 µM with SF-268 CNS; 68.9 µM in the assay with SK-MEL-28 melanoma; above 100 µM in the assay with M14 melanoma; 14.2 µM in the assay with OVCAR-4 ovarian. For the same compound, the TGI in the assay on SK-OV-3 ovarian is above 100 µM; with PC-3 prostate, above 100 µM; with EKVX NSCLC, above 76.6 µM; with NCI/ADR-RES ovarian, above 100 µM.
Turning to `CC(=O)c1ccc2c(c1)N(CCCN1CCN(CCO)CC1)c1ccccc1S2`, the GI50 is 1.82 µM in the assay with SW-620 colon; 5.68 µM in the assay with NCI-H23 lung; 3.15 µM in the assay on SF-268 CNS; 1.73 µM with SK-MEL-28 melanoma; 1.88 µM in the assay on M14 melanoma; 3.98 µM in the assay on OVCAR-4 ovarian. In addition, the GI50 is 2.84 µM in the assay on SK-OV-3 ovarian, 2.4 µM with PC-3 prostate, 4.83 µM in the assay with EKVX NSCLC and 3.05 µM in the assay on NCI/ADR-RES ovarian. For the same compound, the TGI in the assay with SW-620 colon was found to be 3.61 µM; with NCI-H23 lung, 18.9 µM; in the assay on SF-268 CNS it was 12.2 µM; in the assay with SK-MEL-28 melanoma it was 3.23 µM; with M14 melanoma it was 3.6 µM; with OVCAR-4 ovarian it was 14.7 µM. Moreover, the TGI in the assay on SK-OV-3 ovarian is 10.1 µM; in the assay on PC-3 prostate, 9.35 µM; with EKVX NSCLC, 21 µM; with NCI/ADR-RES ovarian, 12.9 µM.
For the compound `CCCCCCNCCCNc1c2cc(OC)ccc2nc2cccc([N+](=O)[O-])c12`, the GI50 in the assay with SW-620 colon was 0.132 µM; in the assay on NCI-H23 lung it was 0.165 µM; with SF-268 CNS, 0.261 µM; in the assay with SK-MEL-28 melanoma, 0.305 µM; in the assay with M14 melanoma it was 0.143 µM; in the assay with OVCAR-4 ovarian, 0.0885 µM. The GI50 in the assay on SK-OV-3 ovarian is 0.266 µM; in the assay on EKVX NSCLC, 1.35 µM; in the assay on NCI/ADR-RES ovarian, 0.555 µM. In addition, the TGI is 4.19 µM and 1.3 µM in the assay with SW-620 colon; 0.296 µM and 0.351 µM in the assay on NCI-H23 lung; 0.418 µM and 1.01 µM in the assay on SF-268 CNS; 0.474 µM and 2 µM in the assay with SK-MEL-28 melanoma; 0.285 µM and 0.293 µM with M14 melanoma; 0.346 µM and 0.238 µM in the assay with OVCAR-4 ovarian. In addition, the TGI is 4.94 µM and 0.961 µM in the assay with SK-OV-3 ovarian; 0.56 µM and 1.02 µM in the assay with PC-3 prostate; 0.427 µM and 3.32 µM in the assay with EKVX NSCLC; 2.41 µM and 3.65 µM with NCI/ADR-RES ovarian.
Consider `COc1cc(OCc2cccc(-c3ccccc3)c2C)cc(OC)c1CN1CCCCC1C(=O)NCCOCCOCCN` (stereo not drawn), for which the GI50 in the assay with SW-620 colon was 1.9 µM; in the assay on NCI-H23 lung, 5.22 µM; in the assay with SF-268 CNS it was 2.1 µM; in the assay on SK-MEL-28 melanoma, 1.75 µM; in the assay on M14 melanoma, 1.84 µM; with OVCAR-4 ovarian, 2.33 µM. Moreover, the GI50 is 10.7 µM in the assay with SK-OV-3 ovarian, 2.76 µM with PC-3 prostate, 3.71 µM in the assay with EKVX NSCLC and 12.6 µM with NCI/ADR-RES ovarian. Besides, the TGI was found to be 3.87 µM in the assay with SW-620 colon; 19.2 µM in the assay with NCI-H23 lung; 5.5 µM in the assay on SF-268 CNS; 3.22 µM in the assay on SK-MEL-28 melanoma; 3.57 µM in the assay on M14 melanoma; 6.48 µM with OVCAR-4 ovarian. Besides, the TGI was 24 µM in the assay with SK-OV-3 ovarian, 11.6 µM with PC-3 prostate, 15.7 µM with EKVX NSCLC and 27.2 µM in the assay with NCI/ADR-RES ovarian.
On to `COc1cc(F)ccc1-c1cc(Nc2cc(CS(C)(=N)=O)ccn2)ncc1F` (stereo not drawn), for which the GI50 is 0.0559 µM in the assay with SW-620 colon; 0.0982 µM in the assay with NCI-H23 lung; 0.0689 µM with SF-268 CNS; 0.102 µM in the assay on SK-MEL-28 melanoma; 0.0649 µM with M14 melanoma; 0.227 µM in the assay on OVCAR-4 ovarian. Also, the GI50 in the assay on SK-OV-3 ovarian was 0.638 µM; in the assay with PC-3 prostate it was 0.0451 µM; in the assay on EKVX NSCLC it was 0.153 µM; with NCI/ADR-RES ovarian, 0.166 µM. The TGI is above 33.1 µM in the assay with SW-620 colon; 1.24 µM in the assay with NCI-H23 lung; above 100 µM in the assay with SF-268 CNS; 5.44 µM in the assay on SK-MEL-28 melanoma; above 37.6 µM in the assay with M14 melanoma; above 100 µM in the assay on SK-OV-3 ovarian. For the same compound, the TGI is above 47.2 µM with PC-3 prostate, 8.63 µM in the assay on EKVX NSCLC and above 36.6 µM with NCI/ADR-RES ovarian.
Take `O=C(c1ccc2ccccc2c1)c1nc2cc(F)ccc2[n+]([O-])c1C(F)(F)F`: the GI50 in the assay on SW-620 colon was 17.3 µM; with NCI-H23 lung it was 13 µM; in the assay on SF-268 CNS, 18.5 µM; in the assay with SK-MEL-28 melanoma it was 15.9 µM; in the assay with M14 melanoma, 17.8 µM; with OVCAR-4 ovarian, 18.7 µM. Further, the GI50 with SK-OV-3 ovarian was 19.4 µM; in the assay with PC-3 prostate, 20.1 µM; in the assay with EKVX NSCLC, 18.2 µM; with NCI/ADR-RES ovarian, 21.2 µM. Moreover, the TGI with SW-620 colon turned out to be 37 µM; in the assay with NCI-H23 lung it was 29.1 µM; in the assay on SF-268 CNS it was 38.1 µM; in the assay on SK-MEL-28 melanoma, 30.3 µM; in the assay with M14 melanoma it was 34 µM; with OVCAR-4 ovarian it was 36.8 µM. The TGI was determined as 34.1 µM in the assay with SK-OV-3 ovarian, 53.4 µM in the assay with PC-3 prostate, 38 µM in the assay with EKVX NSCLC and 42.8 µM in the assay on NCI/ADR-RES ovarian.
